# Patent publication US8945540B2, “Compositions for enhancing the antibacterial activity of myeloperoxidase and methods of use thereof” (Exoxemis, Inc., priority 2008, dated 2015)
# Where two headings read alike, the source gives them in different places.
# Legend:
# Staphylococcus aureus [1] = assay: Microbicidal activity of the myeloperoxidase system (p-MPO, glucose oxidase, glucose) with amino acids in the presence of blood, CFU plate counts; synergy determination from these CFU; assay type: cell-based; conditions: for Average Viability CFU/ml 60 min / Log 10 (CFU + 1) Survivors 60 min / Log Reduction 60 min: MPO 38 U/ml, GO 33.3 U/ml; for Average Viability CFU/ml 50 min / Log Reduction 50 min: MPO 4.7 U/ml, GO 4.2 U/ml
# Summary of the method: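 Staphylococcus aureus grown 24 hours in TSB at 35° C was washed in saline and added at a final 2-3×10^7 CFU per mL. The bacteria were mixed in 1 mL reactions with porcine myeloperoxidase, glucose oxidase, amino acids, 150 mM sodium chloride and 3% venous whole blood. Adding glucose to 150 mM started killing. After catalase addition, survivors were counted by serial dilution plating on TSA at 37° C for 24 hours.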
# Staphylococcus aureus [2] = assay: Control: microbicidal activity of the amino acid or analogue alone (no glucose, MPO, glucose oxidase) in the presence of blood; assay type: cell-based; conditions: for log reduction at 5000 µM: Staphylococcus aureus, 1 h, read-out: Log Reduction 60 min
# Source text: As a control to determine the microbicidal activity of the amino acids alone, the foregoing procedure was followed without replication, except in the absence of glucose, MPO, and glucose oxidase.
# [3] = MPO 100 μg/mL, AA 20 mM, 30 min
# [4] = MPO 100 μg/mL, AA 20 mM, 60 min
# [5] = Table 3, amino acid 5 mM (none: 0 mM), blood
# [6] = Table 10, single amino acid 2.5 mM, in the presence of blood, 50 min
# [7] = Table 13, single amino acid 2.5 mM, in the presence of blood, 50 min
# [8] = amino acid alone 5 mM, MPO 0, GO 0, no glucose, blood, without replication
# [9] = Table 2, amino acid 5 mM (none: 0 mM), blood
# [10] = Table 14, single amino acid 2.5 mM, in the presence of blood, 50 min
# [11] = Table 11, single amino acid 2.5 mM, in the presence of blood, 50 min
# [12] = Table 19, amino acid 3.5 mM, 50 min
# [13] = single amino acid 2.5 mM, blood
# [14] = Table 7, amino acid analogue 5 mM, blood
SMILES,"Log 10 (CFU + 1) Survivors (Staphylococcus aureus [1]; MPO 25 μg/mL, AA 5 mM, 30 min)","Log 10 (CFU + 1) Survivors (Staphylococcus aureus [1]; MPO 25 μg/mL, AA 5 mM, 60 min)","Log 10 (CFU + 1) Survivors (Staphylococcus aureus [1]; MPO 25 μg/mL, AA […], 30 min)","Log 10 (CFU + 1) Survivors (Staphylococcus aureus [1]; MPO 25 μg/mL, AA […], 60 min)","Log 10 (CFU + 1) Survivors (Staphylococcus aureus [1]; MPO 100 μg/mL, AA 5 mM, 30 min)","Log 10 (CFU + 1) Survivors (Staphylococcus aureus [1]; MPO 100 μg/mL, AA 5 mM, 60 min)",Log 10 (CFU + 1) Survivors (Staphylococcus aureus [1]; [3]),Log 10 (CFU + 1) Survivors (Staphylococcus aureus [1]; [4]),Average Viability CFU/ml 60 min (Staphylococcus aureus [1]; [5]),Log 10 (CFU + 1) Survivors 60 min (Staphylococcus aureus [1]; [5]),Log Reduction 60 min (Staphylococcus aureus [1]; [5]),Average Viability CFU/ml 50 min (Staphylococcus aureus [1]; [6]),Log Reduction 50 min (Staphylococcus aureus [1]; [6]),Average Viability CFU/ml 50 min (Staphylococcus aureus [1]; [7]),Log Reduction 50 min (Staphylococcus aureus [1]; [7]),log reduction at 5000 µM (Staphylococcus aureus [2]; [8]),Average Viability CFU/ml 60 min (Staphylococcus aureus [2]; [8]),Average Viability CFU/ml 60 min (Staphylococcus aureus [1]; [9]),Log 10 (CFU + 1) Survivors 60 min (Staphylococcus aureus [1]; [9]),Log Reduction 60 min (Staphylococcus aureus [1]; [9]),further results
N[C@@H](CC(=O)O)C(=O)O [L-Aspartic acid],7.1,7.0,7.0,6.9,7.0,5.8,7.0,6.8,620000 CFU/ml,5.8,1.5,6900000 CFU/ml,0.6,4700000 CFU/ml,0.7,0.1,18600000 CFU/ml,,,,
N[C@@H](CS)C(=O)O [L-Cysteine],,,,,,,,,,,,,,,,0,22400000 CFU/ml,17400000 CFU/ml,7.2,0.1,
N[C@@H](CCC(=O)O)C(=O)O [L-Glutamic acid],7.1,7.0,7.3,6.7,6.9,2.8,7.3,6.0,,,,10850000 CFU/ml,0.4,11800000 CFU/ml,0.3,,23700000 CFU/ml,236 CFU/ml,2.4,5.0,Average Viability CFU/ml 50 min (Staphylococcus aureus [1]; [10]): 13700000 CFU/ml; Log Reduction 50 min (Staphylococcus aureus [1]; [10]): 0.3; log reduction at 5000 µM (Staphylococcus aureus [2]): 0
NC(=O)CC[C@H](N)C(=O)O [L-Glutamine],7.3,7.1,6.8,7.0,7.2,0.0,7.0,5.2,,,,14350000 CFU/ml,0.2,12550000 CFU/ml,0.3,0,24100000 CFU/ml,286 CFU/ml,2.5,4.9,
N[C@@H](Cc1c[nH]cn1)C(=O)O [L-Histidine],7.3,7.3,7.3,7.3,6.8,4.7,7.3,7.3,,,,7000000 CFU/ml,0.5,4750000 CFU/ml,0.7,0,22700000 CFU/ml,48000 CFU/ml,4.7,2.7,Average Viability CFU/ml 50 min (Staphylococcus aureus [1]; [11]): 7000000 CFU/ml; Log Reduction 50 min (Staphylococcus aureus [1]; [11]): 0.6
O=C(O)[C@@H]1C[C@@H](O)CN1 [L-Hydroxyproline],7.3,7.3,7.4,6.1,7.2,0.9,7.2,7.3,0 CFU/ml,0.0,7.3,13100000 CFU/ml,0.3,11450000 CFU/ml,0.3,,20400000 CFU/ml,,,,Average Viability CFU/ml 50 min (Staphylococcus aureus [1]; [10]): 11550000 CFU/ml; Log Reduction 50 min (Staphylococcus aureus [1]; [10]): 0.4; log reduction at 5000 µM (Staphylococcus aureus [2]): 0
CC[C@H](C)[C@H](N)C(=O)O [L-Isoleucine],0.0,0.0,2.1,0.0,0.0,0.0,0.0,0.0,0 CFU/ml,0.0,7.3,159500 CFU/ml,2.2,,,0,20500000 CFU/ml,,,,Average Viability CFU/ml 50 min (Staphylococcus aureus [1]; [11]): 155500 CFU/ml; Log Reduction 50 min (Staphylococcus aureus [1]; [11]): 2.2; Average Viability CFU/ml 50 min (Staphylococcus aureus [1]; [10]): 117000 CFU/ml; Log Reduction 50 min (Staphylococcus aureus [1]; [10]): 2.4; Average Viability CFU/ml 50 min (Staphylococcus aureus [1]; [12]): 129333 CFU/ml; Log Reduction 50 min (Staphylococcus aureus [1]; [12]): 2.3; Average Viability CFU/ml 50 min (Staphylococcus aureus [1]; [13]): 73000 CFU/ml; Log Reduction 50 min (Staphylococcus aureus [1]; [13]): 2.5
CC(C)C[C@H](N)C(=O)O [L-Leucine],4.1,0.0,3.9,0.0,0.0,0.0,0.0,0.0,0 CFU/ml,0.0,7.3,214500 CFU/ml,2.1,,,0.1,18700000 CFU/ml,,,,Average Viability CFU/ml 50 min (Staphylococcus aureus [1]; [11]): 200500 CFU/ml; Log Reduction 50 min (Staphylococcus aureus [1]; [11]): 2.1; Average Viability CFU/ml 50 min (Staphylococcus aureus [1]; [12]): 204000 CFU/ml; Log Reduction 50 min (Staphylococcus aureus [1]; [12]): 2.1; Average Viability CFU/ml 50 min (Staphylococcus aureus [1]; [13]): 200500 CFU/ml; Log Reduction 50 min (Staphylococcus aureus [1]; [13]): 2.1
COC(=O)[C@@H](N)CCCCN.Cl.Cl [L-Lysine methyl ester dihydrochloride],,,,,,,,,,,,,,,,,,,,,"Average Viability CFU/ml 60 min (Staphylococcus aureus [1]; [14]): 0 CFU/ml; Log Reduction 60 min (Staphylococcus aureus [1]; [14]): 7.4; log reduction at 5000 µM (Staphylococcus aureus [2]): 0; Average Viability CFU/ml 60 min (Staphylococcus aureus [2]; amino acid analogue alone 5 mM, MPO 0, GO 0, no glucose, blood): 21500000 CFU/ml"
